Tested on: diarrhea-predominant IBS subjects
Assay: Study S241.3.011: weekly diary questions on adequate relief
Assay type: in vivo, human
Protocol: Study S241.3.011 was a Phase III, double-blind, placebo-controlled, randomized, multinational study to investigate the safety and efficacy of 2 mg TID of cilansetron for a period of 12 weeks followed by a rerandomized, placebo-controlled four-week treatment period, in diarrhea-predominant IBS subjects. The study was conducted in six countries including the US. A total of 2115 subjects consented to participate, and 770 subjects were randomized. A total of 746 subjects were analyzed for efficacy and 755 subjects were analyzed for safety. Diagnosis and main criteria for inclusion were IBS subjects satisfying the Rome I criteria (1992); the diarrhea predominant sub-population of the Rome II criteria; and a minimum abdominal pain/discomfort, stool frequency and consistency determined during the run-in period. Subjects were treated with cilansetron 2 mg tablets given orally TID or matching placebo tablets given orally TID for 12 weeks followed by a rerandomized, placebo-controlled four-week treatment period.
The primary efficacy parameter was the number of months that a subject was a responder for IBS symptoms (abdominal pain, abdominal discomfort, abnormal bowel habits) over the 12-week treatment period. A responder for a month (monthly responder) was defined as a subject who answered the weekly question with “yes” at least twice for that month. The two main secondary efficacy parameters were the monthly responder rates based on the “adequate relief” questions regarding abdominal pain/discomfort and abnormal bowel habits during the 12-week treatment period. The overall response rate and responder rate for the weekly diary questions on adequate relief at each month and all months, the adequate relief rate, the number of subjects with adequate relief by week, daily diary questions, IBS-QOL scores, and the interruption of activities were also assessed. Safety was evaluated by physical examination, ECG, vital signs, laboratory evaluations, concomitant medications, and AEs.
Subjects who were initially randomized to the cilansetron 2 mg TID group and rerandomized to placebo, will be referred to as the C/P treatment group; subjects initially randomized to the placebo group and rerandomized to placebo will be referred to as the P/P treatment group; the P/C and C/C treatment group nomenclature follow the same principle. Of the 591 subjects who completed the three-month treatment period, 576 subjects were rerandomized and thus divided into the following treatment groups: 150 subjects in the C/C treatment group, 140 subjects in the C/P treatment group, 136 subjects in the P/C treatment group, and 150 subjects in the P/P treatment group. Of the 576 subjects rerandomized, a higher percentage of subjects in the C/C treatment group (99%) completed the study compared with the C/P (95%), P/C (93%), and the P/P (95%) treatment groups.
Studies S24 1.3.OO6, S24 1.3.0 1 1, and S24 1.3.009 used the following efficacy measurements: • The subjects answered the following three questions with “yes” or “no” using a phone diary at the end of each week: • a) During the last week, did you experience adequate relief of your IBS symptoms, such as abdominal pain, abdominal discomfort, abnormal bowel habits? • b) During the last week, did you experience adequate relief of your abdominal pain and/or discomfort? • c) During the last week, did you experience adequate relief of your abnormal bowel habits? • The subjects rated the following symptoms using the phone diary at the end of each day: • abdominal pain/discomfort (five-point scale); • stool consistency (seven-point Bristol Stool Scale); • stool frequency (number of bowel movements each day); • urgency (five-point scale); • straining (yes or no); • feeling of incomplete defecation (yes or no); • bloating or feeling of abdominal distension (five-point scale). • In Studies S241 A006 and S241.3.009, subjects completed the IBS-QOL Survey at Baseline (Day 1) and at the end of treatment. […]

[1] = 2 mg TID, monthly LOCF, ITT N = 377
[2] = 2 mg TID, three-month treatment period, monthly LOCF, ITT N = 377
[3] = 2 mg TID, three-month treatment period, observed case, ITT N = 377
[4] = Baseline BMI: <30 kg/m^2, three-month treatment period, monthly LOCF, ITT, 2 mg TID

## Cc1nccn1C[C@H]1CCc2c(c3cccc4c3n2CCC4)C1=O [Cilansetron, (R)-(−)-4,5,6,8,9,10-hexahydro-10-[(2-methyl-1H-imidazol-1-yl)methyl]-11H-pyrido-[3,2,1-jk]-carbazol-11-one]
2 mg TID, 3 months
  Responders for one month, IBS symptoms: 14%
  Responders for one month, abdominal pain/discomfort: 12%
  Responders for one month, abnormal bowel habits: 13%
  Responders for three months, IBS symptoms: 39%
  Responders for three months, abdominal pain/discomfort: 42%
  Responders for three months, abnormal bowel habits: 40%
  Responders for two months, IBS symptoms: 19%
  Responders for two months, abdominal pain/discomfort: 19%
  Responders for two months, abnormal bowel habits: 18%
  Responders for zero months, IBS symptoms: 28%
  Responders for zero months, abdominal pain/discomfort: 27%
  Responders for zero months, abnormal bowel habits: 30%
[1]
  Responder rate, adequate relief of IBS symptoms, Each month of Months 1 to 3: 148 (39) n (%)
  Responder rate, adequate relief of IBS symptoms, Month 1: 216 (57) n (%)
  Responder rate, adequate relief of IBS symptoms, Month 2: 214 (57) n (%)
  Responder rate, adequate relief of IBS symptoms, Month 3: 208 (55) n (%)
  Responder rate, adequate relief of abdominal pain/discomfort, Each month of Months 1 to 3: 159 (42) n (%)
  Responder rate, adequate relief of abdominal pain/discomfort, Month 1: 217 (58) n (%)
  Responder rate, adequate relief of abdominal pain/discomfort, Month 2: 229 (61) n (%)
  Responder rate, adequate relief of abdominal pain/discomfort, Month 3: 220 (58) n (%)
  Responder rate, adequate relief of abnormal bowel habits, Each month of Months 1 to 3: 149 (40) n (%)
  Responder rate, adequate relief of abnormal bowel habits, Month 1: 214 (57) n (%)
  Responder rate, adequate relief of abnormal bowel habits, Month 2: 209 (55) n (%)
  Responder rate, adequate relief of abnormal bowel habits, Month 3: 206 (55) n (%)
[2]
  Subjects who were responders for One month, adequate relief of IBS symptoms: 54 (14) n (%)
  Subjects who were responders for One month, adequate relief of abdominal pain/discomfort: 45 (12) n (%)
  Subjects who were responders for One month, adequate relief of abnormal bowel habits: 50 (13) n (%)
  Subjects who were responders for Three months, adequate relief of IBS symptoms: 148 (39) n (%)
  Subjects who were responders for Three months, adequate relief of abdominal pain/discomfort: 159 (42) n (%)
  Subjects who were responders for Three months, adequate relief of abnormal bowel habits: 149 (40) n (%)
  Subjects who were responders for Two months, adequate relief of IBS symptoms: 70 (19) n (%)
  Subjects who were responders for Two months, adequate relief of abdominal pain/discomfort: 72 (19) n (%)
  Subjects who were responders for Two months, adequate relief of abnormal bowel habits: 66 (18) n (%)
  Subjects who were responders for Zero months, adequate relief of IBS symptoms: 105 (28) n (%)
  Subjects who were responders for Zero months, adequate relief of abdominal pain/discomfort: 101 (27) n (%)
  Subjects who were responders for Zero months, adequate relief of abnormal bowel habits: 112 (30) n (%)
[3]
  Overall responder rate, adequate relief of IBS symptoms: 206 (55) n (%)
  Overall responder rate, adequate relief of abdominal pain/discomfort: 221 (59) n (%)
  Overall responder rate, adequate relief of abnormal bowel habits: 203 (54) n (%)
3 months
  Median adequate relief rate, IBS symptoms: 0.58
  Median adequate relief rate, abdominal pain/discomfort: 0.58
  Median adequate relief rate, abnormal bowel habits: 0.58
3 months, observed case, ITT
  Overall responder rate, IBS symptoms: 55%
  Overall responder rate, abdominal pain/discomfort: 59%
  Overall responder rate, abnormal bowel habits: 54%
Argentina and Chile
  Responder rate, abdominal pain/discomfort: 65%
[4]
  Number of months a subject was a responder: One month (Abdominal pain/discomfort): 30 (11) n (%)
  Number of months a subject was a responder: One month (Abnormal bowel habits): 33 (12) n (%)
  Number of months a subject was a responder: One month (IBS symptoms): 38 (14) n (%)
  Number of months a subject was a responder: Three months (Abdominal pain/discomfort): 113 (42) n (%)
  Number of months a subject was a responder: Three months (Abnormal bowel habits): 104 (39) n (%)
  Number of months a subject was a responder: Three months (IBS symptoms): 107 (40) n (%)
  Number of months a subject was a responder: Two months (Abdominal pain/discomfort): 50 (19) n (%)
  Number of months a subject was a responder: Two months (Abnormal bowel habits): 51 (19) n (%)
  Number of months a subject was a responder: Two months (IBS symptoms): 48 (18) n (%)
  Number of months a subject was a responder: Zero months (Abdominal pain/discomfort): 73 (27) n (%)
  Number of months a subject was a responder: Zero months (Abnormal bowel habits): 78 (29) n (%)

Source: patent US20090176817A1, “Method of Treatment of Diarrhea-Predominant Irritable Bowel Syndrome in a Subject” (priority 2005, published 2009)
